# Values quoted from earlier work, collected in US20090069433A1 (priority 2007, published 2009).
# Conditions: pure capsaicinoid; background statement
smiles,measurement,value
COc1cc(CNC(=O)CCCC/C=C/C(C)C)ccc1O [Capsaicin],pungency (Scoville scale),"15,000,000-16,000,000 Scoville units"
